Details: Gas, isochoric method

FCC(F)(F)F [1,1,1,2-tetrafluoroethane]
Details | molar volume [m3/mol]
253.09 K, 107.6 kPa | 0.01875
272.92 K, 158.9 kPa | 0.01358
282.69 K, 329.1 kPa | 0.006516
282.8 K, 121.4 kPa | 0.01878
292.87 K, 171.9 kPa | 0.0136
292.89 K, 126.2 kPa | 0.01878
302.58 K, 357.7 kPa | 0.006522
313.1 K, 135.4 kPa | 0.0188
313.1 K, 184.9 kPa | 0.01361
323.07 K, 386.5 kPa | 0.006528
333.03 K, 144.3 kPa | 0.01882
333.03 K, 1610.8 kPa | 0.001248
333.05 K, 197.5 kPa | 0.01362
342.96 K, 413.7 kPa | 0.006533
343 K, 1706.9 kPa | 0.001248
352.93 K, 153.2 kPa | 0.01883
352.94 K, 1798.6 kPa | 0.001249
353.04 K, 210 kPa | 0.01363
362.89 K, 440.7 kPa | 0.006539
362.9 K, 1888.6 kPa | 0.001249
372.82 K, 454 kPa | 0.006542
372.84 K, 162.1 kPa | 0.01885
372.87 K, 1976.6 kPa | 0.00125
372.99 K, 222.4 kPa | 0.01364

C=C(F)C(F)(F)F [2,3,3,3-tetrafluoro-1-propene]
Details | molar volume [m3/mol]
243.07 K, 98 kPa | 0.01911
243.08 K, 84.5 kPa | 0.02278
248.02 K, 86.5 kPa | 0.02278
249.15 K, 87 kPa | 0.02278
253.01 K, 105.1 kPa | 0.01912
253.07 K, 88.5 kPa | 0.02278
258.03 K, 90.4 kPa | 0.02279
262.93 K, 171.7 kPa | 0.01189
262.97 K, 109.8 kPa | 0.01913
263.08 K, 92.4 kPa | 0.02279
267.98 K, 94.2 kPa | 0.0228
272.84 K, 179.3 kPa | 0.01189
272.92 K, 114.4 kPa | 0.01914
273.04 K, 96.2 kPa | 0.0228
277.99 K, 98 kPa | 0.02281
282.62 K, 118.8 kPa | 0.01914
282.68 K, 186.6 kPa | 0.0119
282.75 K, 430.2 kPa | 0.004676
282.95 K, 99.9 kPa | 0.02281
283 K, 394.6 kPa | 0.005292
287.79 K, 101.7 kPa | 0.02282
287.93 K, 447.1 kPa | 0.004677
287.99 K, 403.8 kPa | 0.005293
292.58 K, 193.9 kPa | 0.0119
292.76 K, 103.6 kPa | 0.02282
292.81 K, 457.2 kPa | 0.004678
292.95 K, 412.8 kPa | 0.005295
292.99 K, 123.5 kPa | 0.01915
293.1 K, 508.2 kPa | 0.004171
297.8 K, 105.5 kPa | 0.02283
297.89 K, 467.6 kPa | 0.00468
298.08 K, 422.1 kPa | 0.005296
302.7 K, 201.4 kPa | 0.01191
302.91 K, 477.9 kPa | 0.004681
303.09 K, 431.1 kPa | 0.005297
303.11 K, 703.6 kPa | 0.002968
303.12 K, 107.4 kPa | 0.02284
303.12 K, 128.1 kPa | 0.01916
303.12 K, 531.3 kPa | 0.004173
308.1 K, 439.9 kPa | 0.005298
308.11 K, 109.3 kPa | 0.02284
308.11 K, 488.4 kPa | 0.004682
313.09 K, 448.7 kPa | 0.005299
313.11 K, 111.2 kPa | 0.02285
313.11 K, 498.5 kPa | 0.004683
313.11 K, 554 kPa | 0.004174
313.11 K, 738.1 kPa | 0.002969
313.12 K, 132.7 kPa | 0.01917
313.12 K, 209 kPa | 0.01192
318.09 K, 457.5 kPa | 0.0053
318.09 K, 508.5 kPa | 0.004684
318.1 K, 113 kPa | 0.02285
318.11 K, 861.5 kPa | 0.002534
323.07 K, 518.3 kPa | 0.004685
323.08 K, 114.9 kPa | 0.02286
323.08 K, 466.1 kPa | 0.005302
323.09 K, 216.2 kPa | 0.01192
323.09 K, 576.5 kPa | 0.004176
323.09 K, 771.8 kPa | 0.00297
323.1 K, 137.1 kPa | 0.01918
328.06 K, 474.7 kPa | 0.005303
328.06 K, 528.3 kPa | 0.004686
328.06 K, 901.7 kPa | 0.002535
328.07 K, 116.8 kPa | 0.02286
333.04 K, 118.8 kPa | 0.02286
333.04 K, 483.3 kPa | 0.005304
333.04 K, 538.1 kPa | 0.004687
333.05 K, 537.8 kPa | 0.004687
333.05 K, 598.7 kPa | 0.004178
333.05 K, 804.7 kPa | 0.002972
333.06 K, 141.6 kPa | 0.01919
333.06 K, 223.4 kPa | 0.01192
338 K, 1538.8 kPa | 0.001325
338.01 K, 491.8 kPa | 0.005305
338.02 K, 941.5 kPa | 0.002536
338.03 K, 120.6 kPa | 0.02287
338.03 K, 547.6 kPa | 0.004688
342.99 K, 146.1 kPa | 0.0192
342.99 K, 500.3 kPa | 0.005306
343 K, 122.5 kPa | 0.02287
343 K, 230.6 kPa | 0.01193
343.01 K, 557.3 kPa | 0.004689
343.01 K, 620.6 kPa | 0.00418
343.02 K, 837.4 kPa | 0.002973
347.94 K, 1624.6 kPa | 0.001325
347.94 K, 2217.8 kPa | 0.000789
347.96 K, 508.8 kPa | 0.005307
347.97 K, 124.3 kPa | 0.02288
347.98 K, 980.2 kPa | 0.002537
347.98 K, 2157.7 kPa | 0.000833
347.99 K, 567 kPa | 0.00469
352.91 K, 517.2 kPa | 0.005309
352.91 K, 2303.2 kPa | 0.000789
352.96 K, 126.1 kPa | 0.02288
352.96 K, 576.6 kPa | 0.004691
352.96 K, 642.4 kPa | 0.004182
352.96 K, 869.4 kPa | 0.002974
352.98 K, 150.6 kPa | 0.0192
352.98 K, 237.7 kPa | 0.01194
352.99 K, 2237.2 kPa | 0.000833
357.86 K, 2385.6 kPa | 0.000789
357.88 K, 525.6 kPa | 0.00531
357.92 K, 128 kPa | 0.02289
357.93 K, 586.2 kPa | 0.004692
357.93 K, 1018.7 kPa | 0.002538
357.95 K, 1709 kPa | 0.001326
357.95 K, 2314.1 kPa | 0.000833
362.83 K, 2467.7 kPa | 0.000789
362.86 K, 534 kPa | 0.005311
362.89 K, 129.8 kPa | 0.02289
362.89 K, 2389.2 kPa | 0.000833
362.92 K, 595.8 kPa | 0.004693
362.92 K, 664 kPa | 0.004184
362.92 K, 3067.5 kPa | 0.000251
362.93 K, 155 kPa | 0.01921
362.93 K, 901.2 kPa | 0.002976
362.96 K, 244.9 kPa | 0.01194
367.8 K, 2548.9 kPa | 0.000789
367.83 K, 542.5 kPa | 0.005312
367.87 K, 131.9 kPa | 0.0229
367.88 K, 1057 kPa | 0.002539
367.88 K, 2463.9 kPa | 0.000834
367.89 K, 605.3 kPa | 0.004694
367.92 K, 1791.4 kPa | 0.001326
367.92 K, 3386.9 kPa | 0.000251
372.8 K, 2629.5 kPa | 0.000789
372.81 K, 550.9 kPa | 0.005313
372.82 K, 133.8 kPa | 0.0229
372.84 K, 932.4 kPa | 0.002977
372.85 K, 1075.9 kPa | 0.00254
372.85 K, 2537.2 kPa | 0.000834
372.87 K, 614.8 kPa | 0.004695
372.88 K, 159.4 kPa | 0.01922
372.88 K, 252 kPa | 0.01195
372.88 K, 685.4 kPa | 0.004185
372.88 K, 3715.9 kPa | 0.000251

— the NIST ThermoML archive (doi:10.1021/je100102q)
